Assay [1] deals with Acinetobacter baumannii/haemolyticus: Multidrug-resistant clinical isolate (AB-3167). Put plainly: MIC determination (CLSI), AB-3167. To be noted: Acinetobacter baumannii/haemolyticus multidrug-resistant clinical isolate; overnight incubation; lower of duplicate values; read-out: AB-3167 (MIC). The assay is classed as cell-based. Here is the method:
(§1) The in vitro antibacterial activity of compounds described in the Examples was evaluated by minimum inhibitory concentration (MIC) testing according to Clinical and Laboratory Standards Institute (CLSI) Guidelines. See: Clinical and Laboratory Standards Institute. Methods for Dilution Antimicrobial Susceptibility Tests for Bacteria that Grow Aerobically; Approved Standard-Eighth Edition. CLSI document M7-A8 [ISBN 1-56238-689-1]. Clinical and Laboratory Standards Institute, 940 West Valley Road, Suite 1400, Wayne, Pa. 19087-1898 USA, 2006; also Clinical and Laboratory Standards Institute. Performance Standards for Antimicrobial Susceptibility Testing; Twentieth Informational Supplement. CLSI document M100-S20 [ISBN1-56238-716-2]. Clinical and Laboratory Standards Institute.
(§2) The MIC determination is a standard laboratory method for evaluating the antibacterial activity of a compound. The MIC represents the lowest drug concentration that inhibits visible growth of bacteria following overnight incubation. […] Typically, the drug concentration range is broken down into 2-fold increments (e.g. 0.06 μg/mL, 0.12 μg/mL. 0.25 μg/mL, 0.50 μg/mL, 1.0 μg/mL, etc.) and the various drug concentrations are all individually incubated overnight with approximately the same number of bacteria. The MIC is then determined by visually inspecting the drug effect at each concentration, and identifying the lowest drug concentration that has inhibited bacterial growth as compared to the drug free control. Typically, bacteria continue to grow at drug concentrations lower than the MIC and don't grow at concentrations at and above the MIC.
(§3) The MIC values described in Tables 2 and 3 below were derived from assays wherein each test compound was evaluated in duplicate. In cases where the duplicate values varied by 0-2-fold, the lower of the two values was reported below. Generally speaking, if the duplicate values varied by more than 2-fold, the assay was considered non-valid and was repeated until the variation between duplicate runs was ≦2-fold. In line with the CLSI guidelines referred to above, both control organisms and reference compounds were utilized in each MIC assay to provide proper quality control. MIC values generated with these control organisms and reference compounds were required to fall within a defined range for the assay to be considered valid and be included herein. Those skilled in the art will recognize that MIC values can and do vary from experiment to experiment. Generally speaking, it should be recognized that MIC values often vary +/−2-fold from experiment to experiment. While a single MIC is reported for each compound and each microorganism, the reader should not conclude that each compound was only tested once. Several of the compounds were subjected to multiple tests. The data reported in Tables 2 and 3 is reflective of the compounds relative activity and different MICs may have been generated on these occasions in line with the guidelines described above.
(§4) The following bacterial strains were used in these MIC determinations:
(1) Acinetobacter baumannii/haemolyticus: Multidrug-resistant clinical isolate labeled as AB-3167 in Table 5;

For assay [2], the system named is Escherichia coli EC-1: VOGEL, mouse virulent. Put plainly: MIC determination (CLSI), EC-1. The settings on record: Escherichia coli, read-out: EC-1 (MIC). The assay is classed as cell-based. Here is the method:
as §1, §2, §3, §4
(2) Escherichia coli EC-1: VOGEL, mouse virulent labeled as EC-1 in Table 5;

In assay [3] the test system is Klebsiella pneumoniae: Ciprofloxacin-resistant isolate, expresses ESBL, clinical isolate (KP-3700). Put plainly: MIC determination (CLSI), KP-3700. To be noted: overnight incubation, lower of duplicate values. The assay is classed as cell-based. Here is the method: as §1, §2, §3, §4
(3) Klebsiella pneumoniae: Ciprofloxacin-resistant isolate, expresses extended-spectrum beta-lactamases (ESBL), clinical isolate, labeled as KP-3700 in Table 5.

The target of assay [4] is T1, Pseudomonas aeruginosa LpxC enzyme (Pseudomonas aeruginosa, UniProt P47205).
T1 construct: made in house; host or cells: E. coli
T1 sequence (P47205 1-303): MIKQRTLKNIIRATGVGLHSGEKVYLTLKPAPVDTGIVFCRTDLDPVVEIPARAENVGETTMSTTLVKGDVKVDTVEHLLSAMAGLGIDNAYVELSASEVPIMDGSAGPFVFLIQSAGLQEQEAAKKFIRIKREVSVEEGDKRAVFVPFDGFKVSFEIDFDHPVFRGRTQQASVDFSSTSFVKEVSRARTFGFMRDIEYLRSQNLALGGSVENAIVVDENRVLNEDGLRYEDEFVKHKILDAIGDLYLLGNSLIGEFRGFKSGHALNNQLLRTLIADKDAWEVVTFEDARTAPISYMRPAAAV
Put plainly: IC50 assay, LpxC enzyme from P. aeruginosa (BioTrove RapidFire mass spectrometry). The assay is classed as biochemical. Here is the method:
In order to assess the compounds biological activity, selected in-vitro assays were conducted on selected compounds of Formula I. One of the assays measured the compounds ability to disrupt the synthesis of lipopolysaccharide, LPS, which is a component of the outer membrane of Gram-negative bacteria. Disruption of this synthesis is lethal to the bacteria. The assay determined the compound's ability to inhibit LpxC, which is the first enzyme in the biosynthetic pathway for LPS (measured as IC50). Additionally, MICs (minimal inhibitory concentrations) were determined for several bacteria. The specific protocols are described below:
A) IC50 Assay, LpxC Enzyme from P. Aeruginosa Labeled as PA LpxC Enzyme IC50):
At the end of 1 hour, 5 ul of 1 N HCl was added to stop the enzyme reaction, the plates were centrifuged, and then processed with the BioTrove Rapidfire HTMS Mass Spectrometry System. A no-enzyme control was used in calculating the IC50 values from the percent conversion values.

The subject of assay [5] is Pseudomonas aeruginosa UI-18: Wild-type (PA-7). Put plainly: MIC determination (CLSI), PA-7. To be noted: Pseudomonas aeruginosa UI-18 wild-type; overnight incubation; lower of duplicate values; read-out: PA-7 (MIC). The assay is classed as cell-based. Here is the method: as §1, §2, §3, §4
(4) Pseudomonas aeruginosa UI-18: Wild-type, labeled as PA-7 in Table 5;

Where [6] appears, read: P. aeruginosa LpxC enzyme 0.1 nM, 25° C., 1 hour, pH 8.0, read-out: PA: IC50.

In brackets after ≈: the same amount, converted by molar mass. Read-outs that look alike come from different tables or passages of the source.

The term MIC denotes the smallest concentration in the dilution series that meets the test's criterion for growth inhibition. What is called IC50 is the concentration that inhibits the measured activity by half. `CC(CCn1cc(-c2ccc(C#N)c(Cl)c2)cn1)(C(=O)NO)S(C)(=O)=O` (stereo not shown) [Example 64, 4-[4-(3-chloro-4-cyanophenyl)-1H-pyrazol-1-yl]-N-hydroxy-2-methyl-2-(methylsulfonyl)butanamide]: the MIC in assay [1] was > 64 µg/mL; in assay [2], 64 µg/mL (≈ 161 µM); in assay [5], 4 µg/mL (≈ 10.1 µM). Also, the “KP-3700 (MIC)” value in assay [3] is >64.0 µg/mL. Besides, the concentration for half-maximal inhibition (IC50) in assay [4] (setting [6]) turned out to be 0.62 nM.

`Cc1cc(-c2cnn(CCC(C)(C(=O)NO)S(C)(=O)=O)c2)ccc1F` (stereo not shown) [Example 52, 4-[4-(4-fluoro-3-methylphenyl)-1H-pyrazol-1-yl]-N-hydroxy-2-methyl-2-(methylsulfonyl)butanamide]: the MIC in assay [1] was > 64 µg/mL; in assay [2], 16 µg/mL (≈ 43.3 µM); in assay [5], 2 µg/mL (≈ 5.41 µM). For the same molecule, the “KP-3700 (MIC)” value in assay [3] was found to be 64 µg/mL. For the same molecule, in assay [4] (setting [6]), the IC50 amounted to 6.93 nM.

With `CC(CCn1cc(-c2cccc(OC(F)F)c2)cn1)(C(=O)NO)S(C)(=O)=O` (stereo not shown) [Example 68, 4-{4-[3-(difluoromethoxy)phenyl]-1H-pyrazol-1-yl}-N-hydroxy-2-methyl-2-(methylsulfonyl)butanamide], the minimum inhibitory concentration (MIC) in assay [1] was > 64 µg/mL; in assay [2], 64 µg/mL (≈ 159 µM); in assay [5] it was 8 µg/mL (≈ 19.8 µM). Besides, the “KP-3700 (MIC)” value in assay [3] was >64.0 µg/mL. The IC50 in assay [4] (setting [6]) amounted to 2.1 nM.

Consider `CC(CCn1cc(-c2ccc3[nH]c(C(N)=O)cc3c2)cn1)(C(=O)NO)S(C)(=O)=O` (stereo not shown) [Example 87, 5-{1-[4-(hydroxyamino)-3-methyl-3-(methylsulfonyl)-4-oxobutyl]-1H-pyrazol-4-yl}-1H-indole-2-carboxamide], for which the minimal inhibitory concentration (MIC) in assay [1], in assay [2] and in assay [5] was > 64 µg/mL each time. Besides, the “KP-3700 (MIC)” value in assay [3] was >64.0 µg/mL. Further, the half-maximal inhibitory concentration (IC50) in assay [4] (setting [6]) stood at 63.6 nM.

On to `C[C@@](CCn1cc(-c2cccc(F)c2F)nn1)(C(=O)NO)S(C)(=O)=O` [Example 17, (2R)-4-[4-(2,3-difluorophenyl)-1H-1,2,3-triazol-1-yl]-N-hydroxy-2-methyl-2-(methylsulfonyl)butanamide], for which the values for the MIC in assay [1], in assay [2] and in assay [5] were > 64 µg/mL, 32 µg/mL (≈ 85.5 µM) and 4 µg/mL (≈ 10.7 µM), respectively. Besides, the “KP-3700 (MIC)” value in assay [3] amounted to 64 µg/mL. This molecule also came in with a half-inhibitory concentration (IC50) in assay [4] of 8.08 nM.

For the molecule `CC(CCn1cc(-c2ccc3cc(C(N)=O)[nH]c3c2)cn1)(C(=O)NO)S(C)(=O)=O` (stereo not shown) [Example 86, 6-{1-[4-(hydroxyamino)-3-methyl-3-(methylsulfonyl)-4-oxobutyl]-1H-pyrazol-4-yl}-1H-indole-2-carboxamide], the MIC in assay [1], in assay [2] and in assay [5] was > 64 µg/mL each time. For the same molecule, in assay [3], the “KP-3700 (MIC)” value was >64.0 µg/mL. Also, the concentration for half-maximal inhibition (IC50) in assay [4] (setting [6]) was 14.5 nM.

Take `CCc1nc2ccc(-c3cnn(CCC(C)(C(=O)NO)S(C)(=O)=O)c3)cc2s1` (stereo not shown) [Example 91, 4-[4-(2-ethyl-1,3-benzothiazol-6-yl)-1H-pyrazol-1-yl]-N-hydroxy-2-methyl-2-(methylsulfonyl)butanamide]: the values for the minimum inhibitory concentration (MIC) in assay [1], in assay [2] and in assay [5] were > 64 µg/mL, 32 µg/mL (≈ 75.7 µM) and 16 µg/mL (≈ 37.9 µM), respectively. For the same molecule, the “KP-3700 (MIC)” value in assay [3] is >64.0 µg/mL. In assay [4] (setting [6]), the 50% inhibitory concentration (IC50) came to 2.55 nM.

For the molecule `CC(C)(C)c1ccccc1SCc1cn(CCC(C)(C(=O)NO)S(C)(=O)=O)nn1` (stereo not shown) [Example 28, 4-(4-{[(2-t-butylphenyl)sulfanyl]methyl}-1H-1,2,3-triazol-1-yl)-N-hydroxy-2-methyl-2-(methylsulfonyl)butanamide], the MIC in assay [1], in assay [2] and in assay [5] was > 64 µg/mL each time. The “KP-3700 (MIC)” value in assay [3] is >64.0 µg/mL. The IC50 in assay [4] (setting [6]) was 174 nM.
